The results in this text go back to BindingDB's records for doi:10.1007/bf02245606 (Janssen Research Foundation, 1996).

Assay [1] has as its target T1, Alpha-2C adrenergic receptor (Rattus norvegicus, UniProt P22086).
T1 sequence (P22086 whole entry): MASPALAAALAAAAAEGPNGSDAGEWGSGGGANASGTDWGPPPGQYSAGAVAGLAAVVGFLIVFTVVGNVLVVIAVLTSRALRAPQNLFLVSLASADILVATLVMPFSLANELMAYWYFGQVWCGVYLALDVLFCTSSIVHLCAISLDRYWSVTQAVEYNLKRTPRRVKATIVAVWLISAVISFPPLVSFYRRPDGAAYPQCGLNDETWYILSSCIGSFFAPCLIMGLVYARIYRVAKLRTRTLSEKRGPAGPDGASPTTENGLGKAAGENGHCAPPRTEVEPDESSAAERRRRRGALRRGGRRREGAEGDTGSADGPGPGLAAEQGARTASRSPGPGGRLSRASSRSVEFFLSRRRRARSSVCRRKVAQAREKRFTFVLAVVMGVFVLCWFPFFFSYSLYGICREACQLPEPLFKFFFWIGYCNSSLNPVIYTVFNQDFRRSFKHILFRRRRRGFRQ

Assay [2] deals with T2, 5-hydroxytryptamine receptor 1A (Rattus norvegicus, UniProt P19327).
T2 sequence (P19327 whole entry): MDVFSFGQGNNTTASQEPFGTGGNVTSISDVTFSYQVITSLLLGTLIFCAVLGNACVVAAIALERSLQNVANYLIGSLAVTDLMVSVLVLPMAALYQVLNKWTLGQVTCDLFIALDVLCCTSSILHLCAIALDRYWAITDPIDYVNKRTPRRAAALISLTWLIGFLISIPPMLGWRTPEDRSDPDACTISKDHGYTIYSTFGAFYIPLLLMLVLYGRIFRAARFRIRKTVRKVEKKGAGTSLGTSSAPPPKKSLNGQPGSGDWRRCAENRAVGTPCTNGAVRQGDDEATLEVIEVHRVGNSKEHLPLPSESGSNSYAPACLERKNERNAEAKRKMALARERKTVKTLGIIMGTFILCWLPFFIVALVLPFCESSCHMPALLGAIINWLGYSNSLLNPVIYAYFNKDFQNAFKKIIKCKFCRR

Regarding `O=C1NCCN1CCN1CCC(c2cn(-c3ccc(F)cc3)c3ccc(Cl)cc23)CC1` [1-[2-[4-[5-chloro-1-(4-fluorophenyl)-indol-3-yl]-1-piperidyl]ethyl]imidazolidin-2-one], in assay [1], the inhibition constant Ki (usually the dissociation constant of the complex between target and ligand, obtained from inhibition or displacement) was 1680 nM.
For the compound `NC(=O)C1(N2CCCCC2)CCN(CCCC(=O)c2ccc(F)cc2)CC1` [CAS_1893-33-0], the affinity in assay [1], expressed as Ki, was 680 nM. Compared with the last compound, the Ki is about 2.5-fold lower.
Turning to `CN1CC2c3ccccc3Oc3ccc(Cl)cc3C2C1` (stereo not drawn) [NSC_163091], in assay [1], the inhibition constant Ki amounted to 3.7 nM.
On to `Cc1nc2n(c(=O)c1CCN1CCC(c3noc4cc(F)ccc34)CC1)CCCC2O` (stereo not drawn) [9-OH-risperidone], for which the figures for the inhibitory constant (Ki) in assay [2] and in assay [1] were 380 nM and 17 nM, respectively.
In assay [2], `O=C1NCN(c2ccccc2)C12CCN(CC1COc3ccccc3O1)CC2` (stereo not drawn) [8-(2,3-Dihydro-benzo[1,4]dioxin-2-ylmethyl)-1-phenyl-1,3,8-triaza-spiro[4.5]decan-4-one] displayed a Ki of 0.84 nM.
In the case of `O=C1NCN(c2ccccc2)C12CCN(CCCC(c1ccc(F)cc1)c1ccc(F)cc1)CC2`, the Ki in assay [2] came out at 110 nM; in assay [1], 5000 nM.
